According to paper PMC6934184, “Selective DNA-PKcs inhibition extends the therapeutic index of localized radiotherapy and chemotherapy” (The Journal of Clinical Investigation, 2019):

Target: T1, PAK3 (Homo sapiens, UniProt O75914)
T1 construct: purchased Thermo Fisher Scientific (Life Technologies) SelectScreen
Test: SelectScreen Z'LYTE
Type: biochemical
How it was run: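 Percent values come from Thermo SelectScreen profiling of NU5455, combining activity and binding assays. CSF1R was run in Z'LYTE format at Km app ATP, and CAMK1 in Adapta format with ATP listed at 10.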

T1 sequence (O75914 whole entry): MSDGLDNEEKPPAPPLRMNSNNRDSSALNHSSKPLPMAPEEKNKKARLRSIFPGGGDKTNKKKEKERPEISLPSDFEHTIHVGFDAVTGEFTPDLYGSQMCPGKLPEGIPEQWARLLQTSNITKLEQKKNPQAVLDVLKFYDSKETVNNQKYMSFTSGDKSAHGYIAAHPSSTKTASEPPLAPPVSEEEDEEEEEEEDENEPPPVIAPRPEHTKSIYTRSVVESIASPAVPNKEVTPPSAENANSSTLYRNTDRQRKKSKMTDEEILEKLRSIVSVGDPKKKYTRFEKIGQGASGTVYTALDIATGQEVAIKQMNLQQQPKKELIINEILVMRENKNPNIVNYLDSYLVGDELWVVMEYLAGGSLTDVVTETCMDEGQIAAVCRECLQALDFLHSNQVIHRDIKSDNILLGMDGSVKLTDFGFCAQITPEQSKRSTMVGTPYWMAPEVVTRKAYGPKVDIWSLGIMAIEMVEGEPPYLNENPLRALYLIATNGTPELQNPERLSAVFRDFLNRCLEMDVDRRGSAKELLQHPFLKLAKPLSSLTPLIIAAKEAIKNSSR

CN(C(=O)CN1CCOCC1)c1ccc2sc3c(-c4cccc5c(=O)cc(N6CC7CCC(C6)O7)oc45)cccc3c2c1 [NU5455]
inhibition at 1 µM: -42.6%
